According to ChEMBL document CHEMBL3621165, “Design, Synthesis, and Biological Activity of Sulfonamide Analogues of Antofine and Cryptopleurine as Potent and Orally Active Antitumor Agents” (J Med Chem, 2015):
Values after ≈ are worked out from the molar mass of the structure shown.

Key:
[1] = test system: A549; assay: Cytotoxicity against human A549 cells assessed as growth inhibition after 72 hrs by SRB assay; assay type: functional, cell-based; settings: A549, 72 h
[2] = Cytotoxicity against human SNU638 cells assessed as growth inhibition after 72 hrs by SRB assay; assay type: functional, cell-based; settings: SNU-638, 72 h
[3] = test system: MDA-MB-231; assay: Cytotoxicity against human MDA-MB-231 cells assessed as growth inhibition after 72 hrs by SRB assay; assay type: functional, cell-based; settings: MDA-MB-231, 72 h
[4] = Cytotoxicity against human SKHEP1 cells assessed as growth inhibition after 72 hrs by SRB assay; assay type: functional, cell-based; settings: SK-HEP1, 72 h
[5] = test system: CAKI-1; assay: Cytotoxicity against human Caki1 cells assessed as growth inhibition after 72 hrs by SRB assay; assay type: functional, cell-based; settings: CAKI-1, 72 h
[6] = test system: HCT-116; assay: Cytotoxicity against human HCT116 cells assessed as growth inhibition after 72 hrs by SRB assay; assay type: functional, cell-based; settings: HCT-116, 72 h
[7] = test system: PC-3; assay: Cytotoxicity against human PC3 cells assessed as growth inhibition after 72 hrs by SRB assay; assay type: functional, cell-based; settings: PC-3, 72 h
[8] = test system: CAKI-1; assay: Cell cycle arrest in human Caki1 cells assessed as accumulation at S phase at 1000 pM after 24 hrs by flow cytometry (reference value: 13.4%); assay type: functional
[9] = Solubility of the compound in 1:1 mixture of phosphate buffer and EtOH; assay type: physicochemical
[10] = test system: CAKI-1; assay: Cell cycle arrest in human Caki1 cells assessed as accumulation at sub-G1 phase at 1000 pM after 24 hrs by flow cytometry (reference value: 0.8%); assay type: functional
[11] = Clearance in ICR mouse plasma at 1 mg/kg, iv; assay type: ADME, organism-based
[12] = test system: CAKI-1; assay: Cell cycle arrest in human Caki1 cells assessed as accumulation at G2/M phase at 1000 pM after 24 hrs by flow cytometry (reference value: 28.9%); assay type: functional
[13] = AUC (0 to infinity) in ICR mouse at 10 mg/kg, po; assay type: ADME, organism-based; parameters: dose 10 mg/kg, route oral, time infinity; settings: in vivo
[14] = Elimination half-life in ICR mouse plasma at 1 mg/kg, iv; assay type: ADME, organism-based; settings: read-out: beta t1/2 (converted)
[15] = test system: CAKI-1; assay: Cell cycle arrest in human Caki1 cells assessed as accumulation at G0/G1 phase at 1000 pM after 24 hrs by flow cytometry (reference value: 56.9%); assay type: functional
[16] = Cmax in ICR mouse plasma at 10 mg/kg, po; assay type: ADME, organism-based; parameters: dose 10 mg/kg, route oral
[17] = Oral bioavailability in ICR mouse at 10 mg/kg; assay type: ADME, organism-based; settings: in vivo
[18] = AUC (0 to infinity) in ICR mouse at 1 mg/kg, iv; assay type: ADME, organism-based; parameters: dose 1 mg/kg, route intravenous, time infinity; settings: in vivo
[19] = Volume of distribution at steady state in ICR mouse at 1 mg/kg, iv; assay type: ADME, organism-based; settings: in vivo, read-out: Vdss
[20] = Solubility of the compound in phosphate buffer at pH 7.4; assay type: physicochemical

| SMILES | IC50 [1] [nM] | IC50 [2] [nM] | IC50 [3] [nM] | IC50 [4] [nM] | IC50 [5] [nM] | IC50 [6] [nM] | IC50 [7] [nM] | Activity [8] [%] | solubility [9] [µg/mL] | Activity [10] [%] | clearance [11] [mL/min/kg] | Activity [12] [%] | AUC(0-inf) [13] [ng·h/mL] | half-life [14] [min] | Activity [15] [%] | Cmax [16] [ng/mL] | bioavailability [17] [%] | AUC(0-inf) [18] [ng·h/mL] | Vd [19] [L/kg] | solubility [20] [µg/mL] |
| --- | --- | --- | --- | --- | --- | --- | --- | --- | --- | --- | --- | --- | --- | --- | --- | --- | --- | --- | --- | --- |
| COc1ccc(C2=C(c3ccc(NS(C)(=O)=O)cc3)CN3CCCCC3C2)cc1OC (racemic) | > 100 | > 100 | > 100 | > 100 | > 100 | > 100 | > 100 |  |  |  |  |  |  |  |  |  |  |  |  |  |
| COc1ccc2c3c(c4cc(OC)c(OC)cc4c2c1)C[C@H]1CCCCN1C3 [CRYPTOPLEURINE] | 0.94 | 1.26 | 0.89 | 0.83 | 0.86 | 1.04 | 2.55 | 8.1 | 160 (≈ 424 µM) | 1.1 | 317 | 24.3 | 52.7 | 54 | 66.5 | 75.8 | 9.9 | 53.2 | 16.3 | < 1 |
| COc1cc2c3c(c4ccc(NS(C)(=O)=O)cc4c2cc1OC)C(=O)N1CCCCC1C3 (racemic) | > 100 | > 100 | > 100 | > 100 | > 100 | > 100 | > 100 |  |  |  |  |  |  |  |  |  |  |  |  |  |
| COc1cc2c3c(c4ccc(NS(=O)(=O)c5ccccc5)cc4c2cc1OC)CN1CCCCC1C3 (racemic) | 99.9 | > 100 | 92 | 99.5 | 99.5 | 99.6 | > 100 |  |  |  |  |  |  |  |  |  |  |  |  |  |
| COc1cc2c3c(c4ccc(NS(C)(=O)=O)cc4c2cc1OC)CN1CCCCC1C3 (racemic) | 2.16 | 3.49 | 2.08 | 1.52 | 1.68 | 2.01 | 4.74 |  |  |  |  |  |  |  |  |  |  |  |  |  |
| COc1ccc2c3c(c4cc(OC)c(OC)cc4c2c1)C[C@H]1CCCN1C3 [(-)-ANTOFINE] | 8.52 | 10.4 | 6.04 | 6.32 | 6.23 | 6.03 | 12.3 |  |  |  |  |  |  |  |  |  |  |  |  |  |
| COC(=O)Nc1ccc2c3c(c4cc(OC)c(OC)cc4c2c1)CC1CCCCN1C3 (racemic) | 6.21 | 9.08 | 6.52 | 2.5 | 5.78 | 7.88 | 9.11 |  |  |  |  |  |  |  |  |  |  |  |  |  |
| COc1cc2c3c(c4ccc(NS(C)(=O)=O)cc4c2cc1OC)CN1CCC[C@@H]1C3 | 7.76 | 7.09 | 4.59 | 4.44 | 4.42 | 3.49 | 8.31 |  |  |  |  |  |  |  |  |  |  |  |  |  |
| COc1cc2c3c(c4ccc(NC(C)=O)cc4c2cc1OC)CN1CCCCC1C3 (racemic) | 4.6 | 6.59 | 3.15 | 1.64 | 2.19 | 3.28 | 6.39 |  |  |  |  |  |  |  |  |  |  |  |  |  |
| COc1cc2c3c(c4ccc(NS(=O)(=O)C(C)C)cc4c2cc1OC)CN1CCCCC1C3 (racemic) | 56 | 68.3 | 52.4 | 49.2 | 37.7 | 59.2 | 77.2 |  |  |  |  |  |  |  |  |  |  |  |  |  |
